Assay results from US20070129288A1, “Antibacterial amide macrocycles” (BAYER HEALTHCARE AG, priority 2002, published 2007).
Converted amounts (≈) assume the structure as drawn. Where a name gives a salt, the structure may show the parent alone. Read-outs that look alike come from different tables or passages of the source.

Tests used:
[1] = target: translation of firefly luciferase, S. aureus RN4220 S30 extract; test: In vitro transcription-translation with S. aureus extracts; format: biochemical; conditions: reporter plasmid pla, 30° C., 60 min, luciferase luminescence
From the text: (§1) In vitro Transcription-translation with S. aureus Extracts
(§2) Construction of an S. aureus Luciferase Reporter Plasmid
(§3) A reporter plasmid which can be used in an in vitro transcription-translation assay for S. aureus is constructed by using the plasmid pBESTluc (Promega Corporation, USA). The E. coli tac promoter present in this plasmid in front of the firefly luciferase is replaced by the capAl promoter with appropriate Shine-Dalgarno sequence from S. aureus. The primers CAPFor 5′-[…] […]-3′ and CAPRev 5′-[…]-3′ are used for this. The primer CAPFor contains the capAl promoter, the ribosome binding site and the 5′ region of the luciferase gene. After PCR using pBESTluc as template it is possible to isolate a PCR product which contains the firefly luciferase gene with the fused capAl promoter. This is, after restriction with Clal and HindIII, ligated into the vector pBESTluc which has likewise been digested with ClaI and HindIII. The resulting plasmid pla is able to replicate in E. coli and be used as template in the S. aureus in vitro transcription-translation assay.
(§4) Preparation of S30 Extracts from S. aureus
(§5) Six liters of BHI medium are inoculated with a 250 ml overnight culture of an S. aureus strain and allowed to grow at 37° C. until the OD600 nm is 2-4. The cells are harvested by centrifugation and washed in 500 ml of cold buffer A (10 mM Tris acetate, pH 8.0, 14 mM Mg acetate, 1 mM DTT, 1 M KCl). After renewed centrifugation, the cells are washed in 250 ml of cold buffer A with 50 mM KCl, and the resulting pellets are frozen at −20° C. for 60 min. The pellets are thawed on ice in 30 to 60 min and taken up to a total volume of 99 ml in buffer B (10 mM Tris acetate, pH 8.0, 20 mM Mg acetate, 1 mM DTT, 50 mM KCl). 1.5 ml portions of lysostaphin (0.8 mg/ml) in buffer B are introduced into 3 precooled centrifuge cups and each mixed with 33 ml of the cell suspension. The samples are incubated at 37° C., shaking occasionally, for 45 to 60 min, before 150 μl of a 0.5 M DTT solution are added. The lyzed cells are centrifuged at 30 000×g and 4° C. for 30 min. The cell pellet is taken up in buffer B and then centrifuged again under the same conditions, and the collected supernatants are combined. The supernatants are centrifuged again under the same conditions, and 0.25 volume of buffer C (670 mM Tris acetate, pH 8.0, 20 mM Mg acetate, 7 mM Na3 phosphenolpyruvate, 7 mM DTT, 5.5 mM ATP, 70 μM amino acids (complete from Promega), 75 μg of pyruvate kinase (Sigma, Germany)/ml are added to the upper 2/3 of the supernatant. The samples are incubated at 37° C. for 30 min. The supernatants are dialyzed against 2 l of dialysis buffer (10 mM Tris acetate, pH 8.0, 14 mM Mg acetate, 1 mM DTT, 60 mM K acetate) in a dialysis tube with a 3500 Da cut-off with one buffer change at 4° C. overnight. The dialysate is concentrated to a protein concentration of about 10 mg/ml by covering the dialysis tube with cold PEG 8000 powder (Sigma, Germany) at 4° C. The S30 extracts can be stored in aliquots at −70° C.
(§6) Determination of the IC50 in the S. aureus in vitro Transcription-translation Assay
(§7) Inhibition of protein biosynthesis of the compounds can be shown in an in vitro transcription-translation assay. The assay is based on the cell-free transcription and translation of firefly luciferase using the reporter plasmid pla as template and cell-free S30 extracts obtained from S. aureus. The activity of the resulting luciferase can be detected by luminescence measurement. […]

[2] = target: translation of firefly luciferase, S. aureus 133 S30 extract; test: as above; format: biochemical; conditions: reporter plasmid pla, 30° C., 60 min, luciferase luminescence
From the text: as §1, §2, §3, §4, §5, §6, §7

S. aureus 25701 = test: Minimum inhibitory concentration (MIC), liquid dilution test; format: cell-based; conditions: Staphylococcus aureus, minimal medium with 0.4% BH broth, 37° C., 18-24 h
Protocol: (§8) Determination of the Minimum Inhibitory Concentration (MIC):
(§9) The minimum inhibitory concentration (MIC) is the minimum concentration of an antibiotic with which the growth of a test microbe is inhibited over 18-24 h. The inhibitor concentration can in these cases be determined by standard microbiological methods (see, for example, The National Committee for Clinical Laboratory Standards. Methods for dilution antimicrobial susceptibility tests for bacteria that grow aerobically; approved standard-fifth edition. NCCLS document M7-A5 [ISBN 1-56238-394-9]. NCCLS, 940 West Valley Road, Suite 1400, Wayne, Pa. 19087-1898 USA, 2000). The MIC of the compounds of the invention is determined in the liquid dilution test on the 96-well microtiter plate scale. The bacterial microbes are cultivated in a minimal medium (18.5 mM Na2HPO4, 5.7 mM KH2PO4, 9.3 mM NH4Cl, 2.8 mM MgSO4, 17.1 mM NaCl, 0.033 μg/ml thiamine hydrochloride, 1.2 μg/ml nicotinic acid, 0.003 μg/ml biotin, 1% glucose, 25 μg/ml of each proteinogenic amino acid with the exception of phenylalanine; [H.-P. Kroll; unpublished]) with addition of 0.4% BH broth (test medium). In the case of Enterococcus faecalis ICB 27159, heat-inactivated fetal calf serum (FCS; GibcoBRL, Germany) is added to the test medium in a final concentration of 10%. Overnight cultures of the test microbes are diluted to an OD578 of 0.001 (to 0.01 in the case of Enterococci) in fresh test medium, and incubated 1:1 with dilutions of the test substances (1:2 dilution steps) in test medium (150 μl final volume). The cultures are incubated at 37° C. for 18-24 hours; Enterococci in the presence of 5% CO2.
(§10) The lowest substance concentration in each case at which bacterial growth was no longer visible is defined as the MIC. […] The compounds show a graded antibacterial effect against most of the test microbes.

S. aureus 133 [3] = test: as above; format: cell-based
Protocol: as §8, §9, §10

[4] = system: Enterococcus faecalis ICB 27159; test: as above; format: cell-based; conditions: ICB27159, test medium with 10% FCS, 5% CO2, 37° C., 18-24 h, read-out: MIC E. faecalis ICB27159
Protocol: as §8, §9, §10

B. catarrhalis M3 = test: as above; format: cell-based; conditions: Moraxella catarrhalis, minimal medium with 0.4% BH broth, 37° C., 18-24 h
Protocol: as §8, §9, §10

S. aureus RN4220 = test: as above; format: cell-based; conditions: Staphylococcus aureus, minimal medium with 0.4% BH broth, 37° C., 18-24 h
Protocol: as §8, §9, §10

[5] = system: translation of firefly luciferase, Escherichia coli MRE 600 S30 extract; test: In vitro transcription-translation with E. coli extracts; format: biochemical; conditions: plasmid pBESTLuc, 30° C., 60 min, luciferase luminescence, read-out: IC50 E. coli MRE600 Translation
Protocol: In vitro Transcription-translation with E. coli Extracts
An S30 extract is prepared by harvesting logarithmically growing Escherichia coli MRE 600 (M. Müller; University Freiburg), washing and employing them as described for the in vitro transcription-translation assay (Müller, M. and Blobel, G. Proc Natl Acad Sci USA (1984) 81, pp. 7421-7425).
1 μl of cAMP (11.25 mg/ml) are additionally added per 50 μl of reaction mix to the reaction mix for the in vitro transcription-translation assay. The assay mixture amounts to 105 μl, with 5 μl of the substance to be tested being introduced in 5% strength DMSO. 1 μg/100 μl of mixture of the plasmid pBESTLuc (Promega, Germany) are used as transcription template. After incubation at 30° C. for 60 min, 50 μl of luciferin solution (20 mM tricine, 2.67 mM MgSO4, 0.1 mM EDTA, 33.3 mM DTT pH 7.8, 270 μM CoA, 470 μM luciferin, 530 μM ATP) are added, and the resulting bioluminescence is measured in a luminometer for 1 minute. The IC50 is indicated by the concentration of an inhibitor which leads to 50% inhibition of the translation of firefly luciferase.

S. aureus 133 [6] = test: Systemic infection with S. aureus 133 (mouse sepsis model); format: in vivo; conditions: female CFW1 mice, i.p. infection, i.v. therapy 30 minutes after infection, survival recorded for 6 days
Protocol: Systemic Infection with S. aureus 133
The suitability of the compounds of the invention for treating bacterial infections can be shown in various animal models. For this purpose, the animals are generally infected with a suitable virulent microbe and then treated with the compound to be tested, which is in a formulation which is adopted to the particular therapy model.
For this purpose, S. aureus 133 cells are cultured overnight in BH broth (Oxoid, Germany). The overnight culture is diluted 1:100 in fresh BH broth and expanded for 3 hours. The bacteria which are in the logarithmic phase of growth are centrifuged and washed 2× with buffered physiological saline solution. A cell suspension in saline solution with an extinction of 50 units is then adjusted in a photometer (Dr. Lange LP 2W). After a dilution step (1:15), this suspension is mixed 1:1 with a 10% strength mucine suspension. 0.2 ml of this infection solution is administered i.p. per 20 g of mouse. This corresponds to a cell count of about 1-2×10E6 microbes/mouse. The i.v. therapy takes place 30 minutes after the infection. Female CFW1 mice are used for the infection test. The survival of the animals is recorded for 6 days. The animal model is adjusted so that untreated animals die within 24 h after the infection.

[7] = Staphylococcus aureus, 133, read-out: MIC S. aureus 133

## NC[C@H](O)C[C@@H]1NC(=O)[C@@H](N)Cc2cc(ccc2O)-c2ccc(O)c(c2)C[C@@H](C(N)=O)NC1=O [Example 1, (8S,11S,14S)-14-Amino-11-[(2R)-3-amino-2-hydroxypropyl]-5,17-dihydroxy-10,13-dioxo-9,12-diazatricyclo[14.3.1.1^2,6]henicosa-1(20),2(21),3,5,16,18-hexaene-8-carboxamide dihydrochloride]
[1]
  IC50: 500 nM
[2]
  IC50: 900 nM
S. aureus 25701
  MIC: 6.25 µM
S. aureus 133 [3]; [7]
  MIC: 0.2 µM
[4]
  MIC: 6.25 µM
B. catarrhalis M3
  MIC: 1.56 µM
S. aureus RN4220
  MIC: 0.1 µM
[5]
  IC50: 150 nM

## NC[C@H](O)C[C@@H]1NC(=O)[C@@H](N)Cc2cc(ccc2O)-c2ccc(O)c(c2)C[C@@H](C(=O)NCc2ccccc2)NC1=O [Example 2, (8S,11S,14S)-14-Amino-11-[(2R)-3-amino-2-hydroxypropyl]-N-benzyl-5,17-dihydroxy-10,13-dioxo-9,12-diazatricyclo[14.3.1.1^2,6]henicosa-1(20),2(21),3,5,16,18-hexaene-8-carboxamide dihydrochloride]
S. aureus 133 [6]
  therapeutic effect ED100: 1.25 mg/kg
[1]
  IC50: 3400 nM
[2]
  IC50: 1300 to 4500 nM
S. aureus 25701
  MIC: 50 µM
S. aureus 133 [3]; [7]
  MIC: 25 µM
[4]
  MIC: 25 µM
B. catarrhalis M3
  MIC: 25 µM
S. aureus RN4220
  MIC: 12.5 µM
[5]
  IC50: 550 nM

## NC[C@H](O)C[C@@H]1NC(=O)[C@@H](N)Cc2cc(ccc2O)-c2ccc(O)c(c2)C[C@@H](C(=O)NCC(N)=O)NC1=O [Example 37]
[2]
  IC50: 500 nM
S. aureus 133 [3]; Staphylococcus aureus, 133, minimal medium with 0.4% BH broth, 37° C., 18-24 h, read-out: MIC S. aureus 133
  MIC: 0.8 µM (≈ 0.423 µg/mL)
